Results reported in ChEMBL document CHEMBL5543059, “Discovery of anti-inflammatory natural flavonoids: Diverse scaffolds and promising leads for drug discovery” (Eur J Med Chem, 2023).
Values after ≈ are worked out from the molar mass of the structure shown. One block for each molecule: values may come before it.

Columns and labels:
RAW264.7 [1] = test: Anti-inflammatory activity in mouse RAW264.7 cells assessed as inhibition of LPS-induced iNOS mRNA expression; format: functional, cell-based
Peritoneal macrophage [2] = test: Antiinflammatory activity in mouse peritoneal macrophages assessed as fold reduction in LPS-induced TNFalpha level at 20 uM incubated for 4 hrs by ELISA method; format: functional
BMDM = test: Antiinflammatory activity in LPS-stimulated mouse BMDM cells assessed as inhibition of NF-kappaB signalling pathway incubated for 3 hrs by Western blot analysis; format: functional, cell-based
RAW264.7 [3] = test: Antiinflammatory activity against mouse RAW264.7 cells assessed as reduction of LPS-induced NO production; format: functional, cell-based
[4] = Inhibition of TNF-alpha induced NF-kappaB activation in HEK293-A cells incubated for 15 mins by Western blot analysis; format: cell-based; details: Homo sapiens, HEK293, 0.25 h
Mus musculus = test: Antiinflammatory activity against TPA-induced mouse ear edema model assessed as reduction in NO production measured after 4 hrs; format: functional, organism-based
RAW264.7 [5] = test: Inhibition of NF-kappaB activation in mouse RAW264.7 cells expressing luciferase gene at 100 microg/ml by luciferase reporter gene assay; format: cell-based; details: dose 100.0 µg/ml
[6] = Anti-inflammatory activity in LPS-stimulated human PBMC cells assessed as COX-2 inhibition at 100 ug/ml relative to control; format: functional; parameters: scale not given: the % may be the effect or the level left; details: dose 100 µg/ml
[7] = Antioxidant activity assessed as DPPH radical scavenging activity at 100 microg/ml relative to control; format: functional; details: dose 100.0 µg/ml
[8] = Anti-inflammatory activity in LPS-stimulated human PBMC cells assessed as 5-lipoxygenase inhibition at 100 ug/ml relative to control; format: functional; parameters: scale not given: the % may be the effect or the level left; details: dose 100 µg/ml
[9] = Anti-inflammatory activity in LPS-stimulated human PBMC cells assessed as inhibition of TNFalpha at 100 ug/ml relative to control; format: functional; parameters: scale not given: the % may be the effect or the level left; details: dose 100 µg/ml
HEK293 = test: Anti-inflammatory activity against TNFalpha-induced HEK293 cells assessed as inhibition of NF-kappaB activity pre-indubated for 1 hr followed by TNFalpha treatment measured for 5 hrs by luciferase based assay; format: functional, cell-based; details: Homo sapiens
RAW264.7 [10] = test: Anti-inflammatory activity in LPS-stimulated mouse RAW264.7 cells assessed as inhibition of NO production incubated for 24 hrs by Griess reagent based assay; format: functional, cell-based; details: RAW264.7, 24 h
BV-2 [11] = test: Anti-inflammatory activity in mouse BV-2 cells assessed as reduction in LPS-induced NO production pretreated for 1 hr followed by LPS-stimulation and measured after 18 hrs by 2,3-diaminonaphthalene reagent based fluorescence analysis; format: functional, cell-based
BV-2 [12] = test: Anti-inflammatory activity in mouse BV-2 cells assessed as reduction in LPS-induced NO production; format: functional, cell-based
THP-1 = test: Anti-inflammatory activity in human THP-1 cells assessed as inhibition of LPS-stimulated NO production by ELISA analysis; format: functional, cell-based
Peritoneal macrophage [13] = test: Anti-inflammatory activity against LPS-stimulated mouse peritoneal macrophage assessed as reduction in nitric oxide production; format: functional, cell-based
RAW264.7 [14] = test: Anti-inflammatory activity in mouse RAW264.7 cells assessed as reduction in LPS-induced NO production by ELISA analysis; format: functional, cell-based
BV-2 [15] = test: Antineuroinflammatory activity in LPS-induced mouse BV-2 cells assessed as inhibition of NO production pre-incubated for 2 hr followed by LPS-stimulation measured for 24 hrs by Griess reagent based analysis; format: functional, cell-based
[16] = Antioxidant activity assessed as DPPH radical scavenging activity measured for 30 mins; format: functional
[17] = Antioxidant activity assessed as ABTS radical scavenging activity incubated for 40 mins; format: functional
RAW264.7 [18] = test: Antiinflammatory activity in mouse RAW264.7 cells assessed as suppression of LPS-induced iNOS expression preincubated with compound for 1 hrs followed by LPS-stimulation and measured after 24 hrs by Western blot analysis; format: functional, cell-based
Neutrophil = test: Inhibition of fMLF/CB-induced human Neutrophil activation assessed as reduction in superoxide anion at 10 uM relative to control; format: functional; parameters: scale not given: the % may be the effect or the level left

Compound: CC(C)=CCc1cc([C@@H]2CCc3ccc(O)cc3O2)ccc1O
IC50 (RAW264.7 [3]): 28.4 µM

Compound: CC(C)=CCc1c2c(c3occ(-c4ccc(O)cc4)c(=O)c3c1O)C=CC(C)(C)O2 [OSAJIN]
IC50 (RAW264.7 [1]): 7.2 µg/mL (≈ 17.8 µM)
fold change (FC) (Peritoneal macrophage [2]): 1.8
IC50 (BMDM): 12 µg/mL (≈ 29.7 µM)

Compound: CC(C)=CCC/C(C)=C/Cc1c(O)cc2oc(-c3ccc(O)cc3)cc(=O)c2c1O
IC50 (Mus musculus): 4.1 µg/mL (≈ 10.1 µM)

Compound: COc1cc(-c2cc(=O)c3c(O)cc(O)cc3o2)cc(O)c1OC
inhibition (RAW264.7 [5]): 23.1%
Activity [6]: 83.3%
Activity [7]: 40%
Activity [8]: 98.4%
Activity [9]: 86.1%

Compound: COc1ccc2c(c1)c(CC(=O)O)c(C)n2C(=O)c1ccc(Cl)cc1 [INDOMETHACIN]
IC50 (RAW264.7 [10]): 8.5 µM
IC50 (BV-2 [11]): 55.4 µM
IC50 (BV-2 [12]): 15.2 µM
IC50 (THP-1): 19.4 µM
IC50 (Peritoneal macrophage [13]): 148 µM
IC50 (RAW264.7 [14]): 17.6 µM

Compound: CC(C)(O)CCc1c(O)ccc(C(=O)/C=C/c2ccc3c(c2)C[C@@H](C(C)(C)O)O3)c1O
IC50 (BV-2 [15]): 3.25 µM

Compound: COc1c(O)ccc2c(=O)cc(-c3ccc(O)c(O)c3)oc12
IC50 (RAW264.7 [10]): 27.7 µM
IC50 [16]: 5 µM
IC50 [17]: 7.9 µM

Compound: COc1cc(-c2cc(=O)c3c(O)cc(O)cc3o2)ccc1O [CHRYSOERIOL]
IC50 (RAW264.7 [18]): 3.1 µM

Compound: O=C(O)Cc1ccccc1Nc1c(Cl)cccc1Cl [DICLOFENAC]
fold change (FC) (Peritoneal macrophage [2]): 1.8

Compound: COc1cc(O)c2c(=O)c(-c3ccc(O)c(OC)c3)coc2c1
Activity (Neutrophil): 49%

Continued, in another order:

IC50 (RAW264.7 [1]): 6.4 µg/mL (≈ 15.2 µM)
IC50 (BMDM): 13 µg/mL (≈ 30.9 µM)
Compound: CC(C)=CCc1c2c(c3occ(-c4ccc(O)c(O)c4)c(=O)c3c1O)C=CC(C)(C)O2 [POMIFERIN]
fold change (FC) (Peritoneal macrophage [2]): 1.5

IC50 [4]: 3.9 µM
Compound: COc1c(O)cc2oc(-c3ccccc3)cc(=O)c2c1O [OROXYLIN A]

IC50 [4]: 1.5 µM
Compound: C=C1C(=O)O[C@@H]2C3O[C@]3(C)CC/C=C(\C)CC[C@@H]12 (stereo partly drawn)
IC50 (HEK293): 1.5 µM

IC50 (Mus musculus): 3.5 µg/mL (≈ 8.28 µM)
Compound: C=C(C)[C@H](O)CC/C(C)=C/Cc1c(O)cc2oc(-c3ccc(O)cc3)cc(=O)c2c1O

IC50 (Peritoneal macrophage [13]): 23.6 µM
Compound: COc1ccc(-c2coc3cc(O)c(OC)c(O)c3c2=O)cc1 [IRISOLIDONE]

IC50 [16]: 2.1 µM
IC50 [17]: 3.3 µM
Compound: O=C1O[C@H]([C@@H](O)CO)C(O)=C1O [ASCORBIC ACID]
